Source: patent US20230212156A1 (FERMION OY, priority 2020, published 2023)

What was measured:
[1] = 10 g sample, 3 min sieving; for Particle size distribution (Alpine AJS) <425 μm: mass fraction passing 425 μm sieve; for Particle size distribution (Alpine AJS) >75 μm: mass fraction retained on 75 μm sieve; for Particle size distribution (Alpine AJS) >180 μm: mass fraction retained on 180 μm sieve
Source text: In general, the method for carrying out an air jet sieving procedure is as follows.
Together with sample material the sieve is placed on the unit and covered with a lid. A powerful industrial vacuum cleaner generates a strong jet of air which disperses the particles on the sieve through the slotted nozzle rotating below the sieve mesh. Thus the particles are dispersed with each rotation and are distributed over the complete sieve surface. The jet of air causes a continuous new orientation of the particles on the sieve surface. Particles with sizes smaller than the sieve apertures are sucked in by the vacuum cleaner. When using sieves of certain height (e.g. 25 mm height), the inflowing air causes the particles to impact on the lid, thereby helping to destroy agglomerates. The material remaining on the sieve can then be weighed, allowing the amount of the sample having a particle size greater than the aperture of the mesh to be calculated.
Preferably, the sample amount is representative of the sample, and has a mass of at least 10 g. Thus, in one embodiment, the sample amount is 10 g. In this or any other embodiment, sieving time is suitably 3 minutes.
The sieves for use in the air jet sieving method are woven metal sieves. The technical requirements of the test sieves are specified in ISO standard ISO 3310-1:2016 Test sieves—Technical requirements and testing—Part 1: Test sieves of metal wire cloth. The sieves are also according to standard ASTM E11.
The sieving is done according to the process described in Ph.Eur. 2.9.38 Particle-size distribution estimation by analytical sieving. Air jet sieving method is used to determine the mass distribution of particles.
Sieving was done using woven metal sieves according to ISO standard ISO 3310-1:2016 (Test sieves—Technical requirements and testing—Part 1: Test sieves of metal wire cloth). The sieving was done using a single sieve at a time using the appropriate sieve size (75 gm, 180 gm, 425 gm). The sieving was done according to the process described in Ph.Eur. 2.9.38 (Particle-size distribution estimation by analytical sieving).
The sieve was tared. 10 grams of the particle mixture was weighed on the sieve. The sieve was placed on air jet sieve unit and covered with a lid. The vacuum cleaner was switched on, thereby creating a vacuum inside the sieving chamber. The sieving under vacuum was continued for 3 minutes. The finest particles were pulled downwards trough the sieve and the coarse particles remained on the sieve. At the end of the sieving process, the sieve was weighed and the mass of particles remained on the sieve was determined. The sieving process was done as described above using one sieve at a time until the particle size distribution was determined.

[2] = Particle size distribution by laser light diffraction (Beckman Coulter LS 230); details: for Particle size / particle size distribution by laser light diffraction, in words: based on FIGS. 1-4; for Dv10 / Dv50 / Dv90: volume weighted, Fraunhofer model, suspended in glycerol and water (1:1), 100 mg sample
[3] = alcohols, esters, ethers and hydrocarbons; cited from earlier work

O=C1CN(/N=C/c2ccc([N+](=O)[O-])o2)C(=O)N1 [Example 5c, nitrofurantoin anhydrate]
Particle size distribution (Alpine AJS) <425 μm [1]: 99% | Particle size distribution (Alpine AJS) >75 μm [1]: 93% | Particle size distribution (Alpine AJS) >180 μm [1]: 51%

O=C1CN(/N=C/c2ccc([N+](=O)[O-])o2)C(=O)N1 [Example 7, nitrofurantoin anhydrate]
Particle size distribution (Alpine AJS) <425 μm [1]: 99% | Particle size distribution (Alpine AJS) >75 μm [1]: 94% | Particle size distribution (Alpine AJS) >180 μm [1]: 36% | Particle size / particle size distribution by laser light diffraction, in words [2]: smaller than in example 2

O=C1CN(/N=C/c2ccc([N+](=O)[O-])o2)C(=O)N1 [Example 4, nitrofurantoin anhydrate]
Particle size distribution (Alpine AJS) <425 μm [1]: 98% | Particle size distribution (Alpine AJS) >75 μm [1]: 99% | Particle size distribution (Alpine AJS) >180 μm [1]: 80%

O=C1CN(/N=C/c2ccc([N+](=O)[O-])o2)C(=O)N1 [Example 3, nitrofurantoin anhydrate]
Particle size distribution (Alpine AJS) <425 μm [1]: 98% | Particle size distribution (Alpine AJS) >75 μm [1]: 97% | Particle size distribution (Alpine AJS) >180 μm [1]: 68%

O=C1CN(/N=C/c2ccc([N+](=O)[O-])o2)C(=O)N1 [Example 2c, nitrofurantoin anhydrate]
Particle size distribution (Alpine AJS) <425 μm [1]: 95% | Particle size distribution (Alpine AJS) >75 μm [1]: 98% | Particle size distribution (Alpine AJS) >180 μm [1]: 70% | Particle size / particle size distribution by laser light diffraction, in words [2]: narrow particle size distribution | Dv10 [2]: 118 μm | Dv50 [2]: 252 μm | Dv90 [2]: 466 μm

O=C1CN(/N=C/c2ccc([N+](=O)[O-])o2)C(=O)N1 [Example 5a, nitrofurantoin anhydrate]
Particle size distribution (Alpine AJS) <425 μm [1]: 97% | Particle size distribution (Alpine AJS) >75 μm [1]: 96% | Particle size distribution (Alpine AJS) >180 μm [1]: 51%

O=C1CN(/N=C/c2ccc([N+](=O)[O-])o2)C(=O)N1 [Example 1, nitrofurantoin anhydrate]
Particle size distribution (Alpine AJS) <425 μm [1]: 96% | Particle size distribution (Alpine AJS) >75 μm [1]: 99% | Particle size distribution (Alpine AJS) >180 μm [1]: 76%

O=C1CN(/N=C/c2ccc([N+](=O)[O-])o2)C(=O)N1 [Example 2b, nitrofurantoin anhydrate]
Particle size distribution (Alpine AJS) <425 μm [1]: 98% | Particle size distribution (Alpine AJS) >75 μm [1]: 98% | Particle size distribution (Alpine AJS) >180 μm [1]: 67% | Particle size / particle size distribution by laser light diffraction, in words [2]: narrow particle size distribution | Dv10 [2]: 163 μm | Dv50 [2]: 348 μm | Dv90 [2]: 667 μm

O=C1CN(/N=C/c2ccc([N+](=O)[O-])o2)C(=O)N1 [Comparison Example 9, nitrofurantoin anhydrate, reference compound]
Particle size distribution (Alpine AJS) <425 μm [1]: 27% | Particle size distribution (Alpine AJS) >75 μm [1]: 99% | Particle size distribution (Alpine AJS) >180 μm [1]: 89%

O=C1CN(/N=C/c2ccc([N+](=O)[O-])o2)C(=O)N1 [Nitrofurantoin anhydrate, 1-[[(5-nitro-2-furanyl)methylene]amino]-2,4-imidazolidinedione]
Solubility in most organic solvents [3]: sparingly soluble

O=C1CN(/N=C/c2ccc([N+](=O)[O-])o2)C(=O)N1 [Comparison example 8, nitrofurantoin anhydrate, reference compound]
Particle size / particle size distribution by laser light diffraction, in words [2]: smaller than in example 2

O=C1CN(/N=C/c2ccc([N+](=O)[O-])o2)C(=O)N1 [Example 2a, nitrofurantoin anhydrate]
Particle size distribution (Alpine AJS) <425 μm [1]: 95% | Particle size distribution (Alpine AJS) >75 μm [1]: 98% | Particle size distribution (Alpine AJS) >180 μm [1]: 72% | Particle size / particle size distribution by laser light diffraction, in words [2]: narrow particle size distribution | Dv10 [2]: 126 μm | Dv50 [2]: 264 μm | Dv90 [2]: 448 μm

O=C1CN(/N=C/c2ccc([N+](=O)[O-])o2)C(=O)N1 [Example 6, nitrofurantoin anhydrate]
Particle size distribution (Alpine AJS) <425 μm [1]: 98% | Particle size distribution (Alpine AJS) >75 μm [1]: 87% | Particle size distribution (Alpine AJS) >180 μm [1]: 10% | Particle size / particle size distribution by laser light diffraction, in words [2]: smaller than in example 2

O=C1CN(/N=C/c2ccc([N+](=O)[O-])o2)C(=O)N1 [Example 5b, nitrofurantoin anhydrate]
Particle size distribution (Alpine AJS) <425 μm [1]: 98% | Particle size distribution (Alpine AJS) >75 μm [1]: 95% | Particle size distribution (Alpine AJS) >180 μm [1]: 52%
